Molecular target: T1, ΔF508-CFTR (Homo sapiens, UniProt P13569, DEL508-508)
T1 construct: expressed in transfected cells
Assay: Membrane potential optical assay (FRET/VIPR), identification of correction compounds
Type: cell-based
Conditions: for Emax: relative efficacy
How it was run: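 Corrector screen: FRET voltage-sensor dyes (CC2-DMPE donor, DiSBAC2(3)) report Cl^− efflux-driven depolarization after 10 μM forskolin and 20 μM genistein in Cl^−-free medium. Beforehand, ΔF508-CFTR NIH3T3 fibroblasts received compound for 16 hrs at 37° C; temperature-corrected cells (27° C) served as positive control.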

T1 sequence (P13569 with tags, fused parts or gaps DEL508-508): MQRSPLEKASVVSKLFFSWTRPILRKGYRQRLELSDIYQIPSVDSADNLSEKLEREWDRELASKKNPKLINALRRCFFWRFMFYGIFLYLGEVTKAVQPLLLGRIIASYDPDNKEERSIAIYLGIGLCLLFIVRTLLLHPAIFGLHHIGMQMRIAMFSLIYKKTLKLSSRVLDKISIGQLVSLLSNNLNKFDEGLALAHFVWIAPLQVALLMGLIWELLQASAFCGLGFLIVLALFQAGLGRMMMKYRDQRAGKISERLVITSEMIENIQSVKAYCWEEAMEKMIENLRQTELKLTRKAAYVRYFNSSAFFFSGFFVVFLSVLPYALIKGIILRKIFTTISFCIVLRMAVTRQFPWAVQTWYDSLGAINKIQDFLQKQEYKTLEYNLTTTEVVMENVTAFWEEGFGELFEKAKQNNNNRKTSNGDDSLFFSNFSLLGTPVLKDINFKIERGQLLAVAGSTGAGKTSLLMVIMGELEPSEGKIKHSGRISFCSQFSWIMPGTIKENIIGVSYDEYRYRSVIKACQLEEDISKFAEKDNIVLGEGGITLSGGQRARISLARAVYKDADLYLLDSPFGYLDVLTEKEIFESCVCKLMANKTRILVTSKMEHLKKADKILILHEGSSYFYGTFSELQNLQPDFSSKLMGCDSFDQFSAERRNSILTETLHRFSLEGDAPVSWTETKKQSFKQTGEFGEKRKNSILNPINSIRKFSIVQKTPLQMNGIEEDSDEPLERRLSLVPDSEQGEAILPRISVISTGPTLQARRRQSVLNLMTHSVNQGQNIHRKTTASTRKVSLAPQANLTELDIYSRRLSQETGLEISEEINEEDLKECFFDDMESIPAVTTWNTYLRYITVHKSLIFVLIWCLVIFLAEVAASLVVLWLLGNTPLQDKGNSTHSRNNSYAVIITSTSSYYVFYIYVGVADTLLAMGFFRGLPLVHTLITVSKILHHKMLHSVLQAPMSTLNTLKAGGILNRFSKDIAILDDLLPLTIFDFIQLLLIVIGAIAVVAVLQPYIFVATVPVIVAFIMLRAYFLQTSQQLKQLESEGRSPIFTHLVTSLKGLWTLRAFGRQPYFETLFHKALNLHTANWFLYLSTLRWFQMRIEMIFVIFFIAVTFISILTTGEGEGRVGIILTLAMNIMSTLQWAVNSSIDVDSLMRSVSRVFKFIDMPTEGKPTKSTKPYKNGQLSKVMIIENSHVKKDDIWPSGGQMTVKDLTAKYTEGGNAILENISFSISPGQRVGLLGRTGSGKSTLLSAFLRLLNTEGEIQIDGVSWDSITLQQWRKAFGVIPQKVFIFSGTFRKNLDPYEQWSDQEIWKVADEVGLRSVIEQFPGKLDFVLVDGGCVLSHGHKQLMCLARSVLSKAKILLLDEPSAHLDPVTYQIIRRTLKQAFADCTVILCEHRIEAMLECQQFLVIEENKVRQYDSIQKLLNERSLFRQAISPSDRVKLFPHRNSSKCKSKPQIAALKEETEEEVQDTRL

Row | EC50 [µM] | Emax [%] | Compound
1 | 10 to 25 | 25 to 100 | Cn1c(CN2CCN(S(=O)(=O)c3ccc(Cl)cc3)CC2)nc2ccc(Cl)cc2c1=O [compound 67]
2 | < 10 | 25 to 100 | CC(c1nc2cc(Cl)ccc2c(=O)n1C)N1CCN(S(=O)(=O)c2ccc(C(F)(F)F)cc2)CC1 (stereo not drawn) [compound 98]
3 | 25 to 60 | 25 to 100 | CNc1nc(C(C)N2CCN(S(=O)(=O)c3ccc(Cl)cc3)CC2)nc2ccccc12 (stereo not drawn) [compound 232]
4 | 25 to 60 | 25 to 100 | CC(c1nc2ccc(C(N)=O)cc2c(=O)n1C)N1CCN(S(=O)(=O)c2ccc(Cl)cc2)CC1 (stereo not drawn) [compound 157]
5 | 10 to 25 | 25 to 100 | COc1ccc2nc(C(C)N3CCN(S(=O)(=O)c4ccc(C)cc4)CC3)n(C)c(=O)c2c1 (stereo not drawn) [compound 134]
6 | < 10 | > 100 | CCCn1c([C@H](C)N2CCN(S(=O)(=O)c3ccc(Br)cc3)CC2)nc2ccccc2c1=O [compound 147]
7 | 25 to 60 | < 25 | CSc1ccc(S(=O)(=O)N2CCN(C(C)c3nc4ccccc4c(=O)n3C)CC2)cc1 (stereo not drawn) [compound 350]
8 | 25 to 60 | < 25 | CCn1c(C(C)N2CCN(S(=O)(=O)c3ccc(Cl)c([N+](=O)[O-])c3)CC2)nc2ccc(Cl)cc2c1=O (stereo not drawn) [compound 34]
9 | < 10 | 25 to 100 | CCCn1c(C(CC)N2CCN(S(=O)(=O)c3ccc(OC)cc3)CC2)nc2ccccc2c1=O (stereo not drawn) [compound 342]
10 | < 10 | > 100 | COc1ccc(S(=O)(=O)N2CCN(C(C)c3nc4ccccc4c(=O)n3CC(C)C)CC2)cc1 (stereo not drawn) [compound 331]
11 | 25 to 60 | < 25 | Cc1ccc(S(=O)(=O)N2CCN(Cc3nc4ccc(Cl)cc4c(=O)n3C)CC2)cc1 [compound 66]
12 | 25 to 60 | < 25 | Cc1ccc(S(=O)(=O)N2CCN(C(C)c3nc4ccc(Cl)cc4c(=O)n3C)CC2)cc1 (stereo not drawn) [compound 41]
13 | < 10 | 25 to 100 | CC(c1nc2ccccc2c(=O)n1C)N1CCN(S(=O)(=O)c2ccc(SC(F)(F)F)cc2)CC1 (stereo not drawn) [compound 352]
14 | 25 to 60 | < 25 | COc1ccc(S(=O)(=O)N2CCN(C(C)c3nc4ccccc4c(=O)n3C)CC2)cc1OC (stereo not drawn) [compound 49]
15 | 10 to 25 | 25 to 100 | CC(c1nc2ccccc2c(=O)n1C)N1CCN(S(=O)(=O)c2cccc(Cl)c2)CC1 (stereo not drawn) [compound 61]
16 | < 10 | > 100 | CC(c1nc2ccccc2c(=O)n1C)N1CCN(S(=O)(=O)c2ccc(Cl)c(Cl)c2)CC1 (stereo not drawn) [compound 241]
17 | 10 to 25 | 25 to 100 | CC(c1nc2ccc(S(C)(=O)=O)cc2c(=O)n1C)N1CCN(S(=O)(=O)c2ccc(Br)cc2)CC1 (stereo not drawn) [compound 142]
18 | 10 to 25 | > 100 | CC(c1nc2ccccc2c(=O)n1C)N1CCN(S(=O)(=O)c2ccc(Cl)cc2)CC1 (stereo not drawn) [compound 9]
19 | < 10 | 25 to 100 | CC(c1nc2ccc(Cl)cc2c(=O)n1C)N1CCN(c2ccc(Cl)cc2)CC1 (stereo not drawn) [compound 44]
20 | < 10 | 25 to 100 | CC(c1nc2ccccc2c(=O)n1C)N1CCN(S(=O)(=O)c2ccc(C(F)(F)F)cc2)CC1 (stereo not drawn) [compound 70]
21 | 25 to 60 | < 25 | CC(c1nc2ccccc2c(=O)n1C)N1CCN(S(=O)(=O)c2ccc(S(C)(=O)=O)cc2)CC1 (stereo not drawn) [compound 262]
22 | < 10 | 25 to 100 | CC(c1nc2ccccc2c(=O)n1C)N1CCN(S(=O)(=O)c2csc3ccccc23)CC1 (stereo not drawn) [compound 272]
23 | < 10 | > 100 | COc1ccc2nc(C(C)N3CCN(S(=O)(=O)c4ccc(Br)cc4)CC3)n(C)c(=O)c2c1 (stereo not drawn) [compound 132]
24 | 25 to 60 | 25 to 100 | COc1ccc(S(=O)(=O)N2CCN(C(C)c3nc4ccc(F)cc4c(=O)[nH]3)CC2)cc1 (stereo not drawn) [compound 377]

Second part, the compound before the results:

Row | Compound | EC50 [µM] | Emax [%]
25 | CCN(CC)c1nc(C(C)N2CCN(S(=O)(=O)c3ccc(Br)cc3)CC2)nc2ccccc12 (stereo not drawn) [compound 222] | < 10 | 25 to 100
26 | COc1ccc(S(=O)(=O)N2CCN(C(C)c3nc(N4CCC(C(=O)O)CC4)c4ccccc4n3)CC2)cc1 (stereo not drawn) [compound 370] | 25 to 60 | < 25
27 | COc1ccc(S(=O)(=O)N2CCN(Cc3nc4ccccc4c(=O)[nH]3)CC2)cc1 [compound 383] | 25 to 60 | < 25
28 | COc1ccc(S(=O)(=O)N2CCN(C(C)c3nc(N4CCCC4)c4ccccc4n3)CC2)cc1 (stereo not drawn) [compound 333] | 10 to 25 | 25 to 100
29 | COc1ccc(S(=O)(=O)N2CCN(C(C)c3nc(N4CCN(C)CC4)c4ccccc4n3)CC2)cc1 (stereo not drawn) [compound 345] | 25 to 60 | 25 to 100
30 | CCCOc1nc(C(C)N2CCN(S(=O)(=O)c3ccc(Br)cc3)CC2)nc2ccccc12 (stereo not drawn) [compound 216] | < 10 | > 100
31 | COc1ccc(S(=O)(=O)N2CCN(C(C)c3nc(N4CC[C@H](O)C4)c4ccccc4n3)CC2)cc1 (stereo partly drawn) [compound 318] | 25 to 60 | 25 to 100
32 | COc1ccc(S(=O)(=O)N2CCN(C(C)c3nc(N4CCSC4)c4ccccc4n3)CC2)cc1 (stereo not drawn) [compound 393] | 10 to 25 | > 100
33 | CCCn1c(C(C)N2CCN(C(=O)Nc3cccc(C#N)c3)CC2)nc2ccccc2c1=O (stereo not drawn) [compound 23] | 25 to 60 | 25 to 100
34 | CCCn1c(C(C)OCC)nc2ccccc2c1=O (stereo not drawn) [compound 89] | 25 to 60 | < 25
35 | COc1ccc(S(=O)(=O)N2CCN(C(C)c3nc4ccccc4c(=O)[nH]3)CC2)cc1 (stereo not drawn) [compound 130] | 10 to 25 | < 25
36 | CCN(CC)c1nc(C(C)N2CCN(S(=O)(=O)c3ccc(OC)cc3)CC2)nc2ccccc12 (stereo not drawn) [compound 195] | 10 to 25 | 25 to 100
37 | COc1ccc(S(=O)(=O)N2CCN(C(C)c3nc(N4CCCCCC4)c4ccccc4n3)CC2)cc1 (stereo not drawn) [compound 319] | < 10 | 25 to 100
38 | CC(c1nc2ccccc2c(=O)n1C)N1CCN(S(=O)(=O)c2ccccc2C#N)CC1 (stereo not drawn) [compound 259] | 25 to 60 | < 25
39 | CC(NCC1CCCCN1)c1nc2ccccc2c(=O)n1C (stereo not drawn) [compound 183] |  | < 25
40 | C[C@H](c1nc(N2CCCCC2)c2ccccc2n1)N1CCN(S(=O)(=O)c2ccc(Cl)cc2)CC1 [compound 379] | < 10 | > 100
41 | CCCn1c(CN2CCN(S(=O)(=O)c3ccc(Cl)cc3)CC2)nc2ccccc2c1=O [compound 151] | 10 to 25 | > 100
42 | COc1ccc(C(=O)N2CCN(C(C)c3nc4ccccc4c(=O)n3C)CC2)cc1 (stereo not drawn) [compound 81] | 25 to 60 | < 25
43 | CCOc1nc(C(C)N2CCN(S(=O)(=O)c3ccc(OC)cc3)CC2)nc2ccccc12 (stereo not drawn) [compound 188] | 10 to 25 | > 100
44 | COc1ccc(S(=O)(=O)N2CCN(C(C)c3ncc(Br)c(=O)[nH]3)CC2)cc1 (stereo not drawn) [compound 378] | 25 to 60 | < 25
45 | COc1ccc(S(=O)(=O)N2CCN(C(C)c3nc(OC4CCC(C)CC4)c4ccccc4n3)CC2)cc1 (stereo not drawn) [compound 399] | < 10 | 25 to 100
46 | CCOc1nc(C(C)N2CCN(S(=O)(=O)c3ccc(Br)cc3)CC2)nc2ccccc12 (stereo not drawn) [compound 228] | < 10 | > 100
47 | COc1ccc(S(=O)(=O)NCCN(C(C)c2nc3ccccc3c(=O)n2C)S(=O)(=O)c2ccc(OC)cc2)cc1 (stereo not drawn) [compound 197] | 25 to 60 | 25 to 100

Reference: patent publication US8642609B2, “Modulators of ATP-binding cassette transporters” (Vertex Pharmaceuticals Incorporated, priority 2003, dated 2014)
